{
  "source": "patent US9938263B2",
  "about": "“Gamma-secretase modulators” (The Regents of the University of California, A California …, priority 2013, dated 2018)",
  "data": [
    {"system": "Aβ42", "experiment": "cell-based moderate throughput Aβ42 ELISA in SH-SY5Y-APP cells", "conditions": "Homo sapiens, SH-SY5Y, human SHSY5Y neuroblastoma cells stably overexpressing human APP, Aβ42 secreted into media", "protocol": "(§1) A variety of cell lines normally produce and secrete various Aβ peptide alloforms into the media upon culture in supportive media. Examples of cell lines routinely used to assess the ability of a compound to inhibit formation specific Aβ peptide alloforms such as Aβ42, upon treatment of the cells with various concentrations of the compound for approximately 16 h followed by determining the concentration of the various Aβ peptide alloforms in the media both with and without treatment with the compound [(e.g., HEK-293, N2a delta E9/Swe, SHSY5Y and primary cerebral cortical neuronal cultures from embryonic day 18 (E18) embryos from timed pregnant WT Sprague-Dawley rats) (Netzer, W I et al., Gleevec inhibits β-amyloid production but not Notch cleavage. See e.g., Proc. Natl. Acad. Sci. U.S.A. 2003; 100:12444-12449.\n(§2) The SH-SY5Y-APP human cell line was derived by transfecting a human neuroblastoma (SH-SY5Y) cell line with a plasmid expressing wild type human APP751 cDNA and selecting for stable expression of human APP and human Aβ. In each case, the levels of Aβ42 or Aβtotal or Aβ38 peptides secreted into the media of these cells were measured using either two-site monoclonal antibody (mAb)-based sandwich ELISA assays (described herein for Aβ42 and Aβtotal) or in the case of Aβ38 EC50's, using either the Meso Scale Aβ38, 40, 42 triplex kit along with the Meso Scale Sector Imager 6000 according to the manufacturer's protocols. This SH-SY5Y-APP human cell line was used for all cell-based Aβ peptide immunochemical assays.\n(§3) SH-SY5Y-APP cells were plated at 75,000 cells/well in 96-well tissue culture plates. After 16-18 h, the culture medium was replaced with fresh medium containing either compound or vehicle. Replicates of 3 wells per test concentration were used, with 10 concentrations at ½ log step intervals. Vehicle (0.12% DMSO) is included as a control.\n(§4) Compounds disclosed herein were synthesized and assayed for biological activity (EC50) in a cell-based moderate throughput Aβ42 ELISA that utilizes human SHSY5Y neuroblastoma cells stably overexpressing human […] wild-type, as known in the art.", "units": {"IC50": "nM"}, "values": [
      {"smiles": "CCn1nc(C(F)(F)F)cc1Nc1nc(-c2ccc(-n3cnc(C)c3)c(OC)n2)cs1", "note": "[Cmpd 004102]", "IC50": 57},
      {"smiles": "COc1nc(-c2csc(N3CC(N(C)C)Cn4nc5c(c43)CCCC5)n2)ccc1-n1cnc(C)c1", "note": "(stereo not drawn) [Cmpd 14885]", "IC50": 59},
      {"smiles": "COc1nc(-c2nc(N3CCCn4nc(C5(C)CC5)cc43)cs2)ccc1-n1cnc(C)c1", "note": "[Cmpd 15666]", "IC50": 18},
      {"smiles": "COc1nc(-c2nc(N3CCCn4nc5c(c43)CCC5)cs2)ccc1-n1cnc(C)c1", "note": "[Cmpd 15669]", "IC50": 5},
      {"smiles": "COc1nc(-c2nc(N3CC(C)Cn4nc(C5(C)CC5)cc43)cs2)ccc1-n1cnc(C)c1", "note": "(stereo not drawn) [Cmpd 15868]", "IC50": 30},
      {"smiles": "COc1nc(-c2csc(N3CC(O)Cn4nc5c(c43)CCC5)n2)ccc1-n1cnc(C)c1", "note": "(stereo not drawn) [15495 A]", "IC50": 53},
      {"smiles": "COc1nc(-c2csc(N3CC(N4C(=O)CCC4=O)Cn4nc5c(c43)CCCC5)n2)ccc1-n1cnc(C)c1", "note": "(stereo not drawn) [Cmpd 14780]", "IC50": 67},
      {"smiles": "COc1nc(-c2csc(N3CC(N4CCCC4)Cn4nc5c(c43)CCCC5)n2)ccc1-n1cnc(C)c1", "note": "(stereo not drawn) [Cmpd 14946]", "IC50": 19},
      {"smiles": "COc1nc(-c2csc(Nc3c4c(nn3C)CCC4)n2)ccc1-n1cnc(C)c1", "note": "[Cmpd 004346]", "IC50": 77},
      {"smiles": "COc1nc(-c2csc(Nc3c4c(nn3CC(C)(C)O)CCCC4)n2)ccc1-n1cnc(C)c1", "note": "[Cmpd 13674]", "IC50": 20},
      {"smiles": "COc1nc(-c2csc(N3CC(O)(CO)Cn4nc5c(c43)CCCC5)n2)ccc1-n1cnc(C)c1", "note": "(stereo not drawn) [Cmpd 15001]", "IC50": 34},
      {"smiles": "COc1nc(-c2nc(Nc3c4c(nn3CCF)CCCC4)sc2CN2CCN(C)CC2)ccc1-n1cnc(C)c1", "note": "[Cmpd 15003]", "IC50": 50},
      {"smiles": "COc1nc(-c2csc(N3CCCn4nc5c(c43)CCC5)n2)ccc1-n1cnc(C)c1", "note": "[Cmpd 14035]", "IC50": 19},
      {"smiles": "COc1nc(-c2csc(Nc3c4c(nn3CCF)CCC4)n2)ccc1-n1cnc(C)c1", "note": "[Cmpd 14106]", "IC50": 64},
      {"smiles": "COc1nc(-c2csc(N3C/C(=N\\O)Cn4nc5c(c43)CCCC5)n2)ccc1-n1cnc(C)c1", "note": "[Cmpd 15004]", "IC50": 55},
      {"smiles": "COc1nc(-c2csc(Nc3c4c(nn3CCF)CCCC4)n2)ccc1-n1cnc(C)c1", "note": "[Cmpd 13680]", "IC50": 17},
      {"smiles": "CCn1nc2c(c1Nc1nc(-c3ccc(-n4cnc(C)c4)c(OC)n3)cs1)CCC2", "note": "[Cmpd 003783]", "IC50": 33},
      {"smiles": "CCn1nc2c(c1Nc1nc(-c3ccc(-n4cnc(C)c4)c(OC)n3)cs1)CCCC2", "note": "[Cmpd 003077]", "IC50": 56},
      {"smiles": "COc1nc(-c2csc(N3C/C(=N\\O)Cn4nc5c(c43)CCC5)n2)ccc1-n1cnc(C)c1", "note": "[Cmpd 14839]", "IC50": 57},
      {"smiles": "CCn1nc2c(c1Nc1nc(-c3ccc(-n4cnc(C)c4)c(OC)n3)c(CN3CCN(C)CC3)s1)CCCC2", "note": "[Cmpd 14548]", "IC50": 98},
      {"smiles": "CCn1nc2c(c1Nc1nc(-c3cnc(-n4cnc(C)c4)c(OC)n3)cs1)CCCC2", "note": "[Cmpd 14257]", "IC50": 89},
      {"smiles": "COc1nc(-c2nc(N3CCCn4nc5c(c43)CCCC5)ns2)ccc1-n1cnc(C)c1", "note": "[Cmpd 16211]", "IC50": 41},
      {"smiles": "COc1nc(-c2csc(Nc3c4c(nn3C(C)(C)C)CCCC4)n2)cnc1-n1cnc(C)c1", "note": "[Cmpd 004019]", "IC50": 71},
      {"smiles": "COc1nc(-c2nc(Nc3c4c(nn3CCF)CCCC4)cs2)ccc1-n1cnc(C)c1", "note": "[Cmpd 15717]", "IC50": 48},
      {"smiles": "C=C1CN(c2nc(-c3ccc(-n4cnc(C)c4)c(OC)n3)cs2)c2c3c(nn2C1)CCCC3", "note": "[Cmpd 14945]", "IC50": 35},
      {"smiles": "COc1nc(-c2nc(N3CC(C)Cn4nc5c(c43)CCC5)cs2)ccc1-n1cnc(C)c1", "note": "(stereo not drawn) [Cmpd 15670]", "IC50": 16},
      {"smiles": "COc1nc(-c2csc(Nc3cc(C4(C)CC4)nn3CCF)n2)ccc1-n1cnc(C)c1", "note": "[Cmpd 13922]", "IC50": 67},
      {"smiles": "CCn1nc2c(c1Nc1nc(-c3ccc(-n4cnc(C)c4)c(OC)n3)c(CN(C)C)s1)CCCC2", "note": "[Cmpd 14508]", "IC50": 85},
      {"smiles": "CCn1nc2c(c1Nc1csc(-c3ccc(-n4cnc(C)c4)c(OC)n3)n1)CCCC2", "note": "[Cmpd 14777]", "IC50": 22},
      {"smiles": "CCn1nc(C2(C)CC2)cc1Nc1csc(-c2ccc(-n3cnc(C)c3)c(OC)n2)n1", "note": "[Cmpd 15587]", "IC50": 14},
      {"smiles": "COc1nc(-c2csc(Nc3c4c(nn3CC(F)(F)F)CCC4)n2)ccc1-n1cnc(C)c1", "note": "[Cmpd 004723]", "IC50": 35},
      {"smiles": "COc1nc(-c2csc(N3CCCn4nc5c(c43)CCCC5)n2)ccc1-n1cnc(C)c1", "note": "[Cmpd 13636]", "IC50": 6},
      {"smiles": "COc1nc(-c2csc(Nc3cc(C4(C(F)(F)F)CC4)nn3C)n2)ccc1-n1cnc(C)c1", "note": "[Cmpd 13887]", "IC50": 11},
      {"smiles": "COc1nc(-c2csc(Nc3c4c(nn3CC(C)(C)O)CCC4)n2)ccc1-n1cnc(C)c1", "note": "[Cmpd 14104]", "IC50": 39},
      {"smiles": "COc1nc(-c2csc(N3CC(F)Cn4nc5c(c43)CCCC5)n2)ccc1-n1cnc(C)c1", "note": "(stereo not drawn) [Cmpd 14676]", "IC50": 10},
      {"smiles": "COc1nc(-c2csc(N3CCC(C(C)(C)O)n4nc5c(c43)CCCC5)n2)ccc1-n1cnc(C)c1", "note": "(stereo not drawn) [Cmpd 15002]", "IC50": 65},
      {"smiles": "COc1nc(-c2nc(N3CC(C)Cn4nc5c(c43)CCCC5)cs2)ccc1-n1cnc(C)c1", "note": "(stereo not drawn) [Cmpd 15830]", "IC50": 12},
      {"smiles": "CCn1nc2c(c1Nc1nc(-c3ccc(-n4cnc(C)c4)c(OC)n3)c(CO)s1)CCCC2", "note": "[Cmpd 13765]", "IC50": 35},
      {"smiles": "CCn1nc(C2(C)CC2)cc1Nc1nc(-c2ccc(-n3cnc(C)c3)c(OC)n2)cs1", "note": "[Cmpd 13563]", "IC50": 24},
      {"smiles": "COc1nc(-c2nc(Nc3c4c(nn3CCF)CCCC4)sc2CN2CCC(F)(F)C2)ccc1-n1cnc(C)c1", "note": "[Cmpd 15473]", "IC50": 99},
      {"smiles": "COc1nc(-c2nc(N3CCCn4nc5c(c43)CCCC5)cs2)ccc1-n1cnc(C)c1", "note": "[Cmpd 15635]", "IC50": 7},
      {"smiles": "COc1nc(-c2csc(Nc3cc(C4(C)CC4)nn3C)n2)ccc1-n1cnc(C)c1", "note": "[Cmpd 13886]", "IC50": 75},
      {"smiles": "CCn1nc2c(c1Nc1nc(-c3ccc(-n4cnc(C)c4)c(OC)n3)cs1)CCC2(C)C", "note": "[Cmpd 004365]", "IC50": 38},
      {"smiles": "COc1nc(-c2csc(Nc3cc(C4(C)CC4)nn3CC(F)(F)F)n2)ccc1-n1cnc(C)c1", "note": "[Cmpd 13921]", "IC50": 27},
      {"smiles": "COc1nc(-c2nc(Nc3cc(C4(C)CC4)nn3CCF)cs2)ccc1-n1cnc(C)c1", "note": "[Cmpd 15746]", "IC50": 56},
      {"smiles": "CO/N=C1\\CN(c2nc(-c3ccc(-n4cnc(C)c4)c(OC)n3)cs2)c2c3c(nn2C1)CCCC3", "note": "[Cmpd 15188]", "IC50": 76}
    ]},
    {"system": "Aβ42", "experiment": "cell-based moderate throughput Aβ42 ELISA in SH-SY5Y-APP cells", "conditions": "human SHSY5Y neuroblastoma cells stably overexpressing human APP, Aβ42 secreted into media", "protocol": "as §1, §2, §3, §4", "units": {"IC50": "nM"}, "values": [
      {"smiles": "COc1nc(-c2csc(N3CC(O)Cn4nc5c(c43)CCC5)n2)ccc1-n1cnc(C)c1", "note": "(stereo not drawn) [15496 B]", "IC50": 33},
      {"smiles": "COc1nc(-c2csc(N3CC(O)Cn4nc5c(c43)CCCC5)n2)ccc1-n1cnc(C)c1", "note": "(stereo not drawn) [14789 A]", "IC50": 5},
      {"smiles": "COc1nc(-c2csc(N3CC(O)Cn4nc5c(c43)CCCC5)n2)ccc1-n1cnc(C)c1", "note": "(stereo not drawn) [14789 B]", "IC50": 30},
      {"smiles": "COc1nc(-c2csc(N3CC(O)Cn4nc5c(c43)CCCC5)n2)ccc1-n1cnc(C)c1", "note": "(stereo not drawn) [Cmpd 14507]", "IC50": 17},
      {"smiles": "COc1nc(-c2csc(N3CC(O)Cn4nc5c(c43)CCC5)n2)ccc1-n1cnc(C)c1", "note": "(stereo not drawn) [Cmpd 14200]", "IC50": 44}
    ]}
  ]
}
